Key:
EGFR (human) = EGFR (human) (UniProt P00533)
[1] = biological target: EGFR (human), P00533 [L858R]
[2] = biological target: EGFR (Human), P00533 [T790M/L858R]
[3] = biological target: EGFR (Human), P00533 [Assessment of EGFR-Del T790M Dependent Cell Proliferation in BaF3 Cells]
[4] = biological target: EGFR (Human), P00533 [T790M/L858R]; conditions: baf3

EGFR (Human), P00533 [T790M/L858R], sequence (P00533 whole entry T790M/L858R, looked up): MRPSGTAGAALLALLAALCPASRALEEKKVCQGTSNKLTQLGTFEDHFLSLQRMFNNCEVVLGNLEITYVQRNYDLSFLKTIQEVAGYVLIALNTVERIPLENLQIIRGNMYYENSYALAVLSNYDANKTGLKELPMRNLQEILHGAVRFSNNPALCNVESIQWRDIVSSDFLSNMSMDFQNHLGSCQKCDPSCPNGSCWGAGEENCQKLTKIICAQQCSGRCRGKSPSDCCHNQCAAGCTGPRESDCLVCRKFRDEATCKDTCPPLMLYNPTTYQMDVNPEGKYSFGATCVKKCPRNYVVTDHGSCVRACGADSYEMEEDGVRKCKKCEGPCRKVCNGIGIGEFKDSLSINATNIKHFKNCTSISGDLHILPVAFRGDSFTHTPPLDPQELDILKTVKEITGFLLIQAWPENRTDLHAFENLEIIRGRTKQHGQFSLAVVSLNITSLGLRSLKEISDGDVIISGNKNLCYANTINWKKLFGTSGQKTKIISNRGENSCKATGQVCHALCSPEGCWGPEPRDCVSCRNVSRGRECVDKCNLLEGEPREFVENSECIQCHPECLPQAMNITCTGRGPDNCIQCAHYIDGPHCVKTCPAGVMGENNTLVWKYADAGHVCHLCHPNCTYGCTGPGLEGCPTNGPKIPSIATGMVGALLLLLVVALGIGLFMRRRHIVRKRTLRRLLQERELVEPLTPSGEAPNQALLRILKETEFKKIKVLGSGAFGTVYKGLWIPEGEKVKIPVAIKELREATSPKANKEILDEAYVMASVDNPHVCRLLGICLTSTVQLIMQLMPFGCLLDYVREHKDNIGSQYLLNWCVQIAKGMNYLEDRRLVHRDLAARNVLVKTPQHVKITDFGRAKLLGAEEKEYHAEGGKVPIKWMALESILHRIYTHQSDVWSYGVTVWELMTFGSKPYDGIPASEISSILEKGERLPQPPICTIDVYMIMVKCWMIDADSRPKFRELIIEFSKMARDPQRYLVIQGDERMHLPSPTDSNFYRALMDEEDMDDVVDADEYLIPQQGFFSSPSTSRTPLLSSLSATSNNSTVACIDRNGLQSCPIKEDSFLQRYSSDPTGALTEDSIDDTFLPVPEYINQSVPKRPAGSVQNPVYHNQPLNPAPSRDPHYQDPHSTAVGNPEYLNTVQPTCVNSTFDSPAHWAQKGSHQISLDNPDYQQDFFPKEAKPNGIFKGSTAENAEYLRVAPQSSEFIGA
EGFR (human), P00533 [L858R], sequence (P00533 whole entry L858R, looked up): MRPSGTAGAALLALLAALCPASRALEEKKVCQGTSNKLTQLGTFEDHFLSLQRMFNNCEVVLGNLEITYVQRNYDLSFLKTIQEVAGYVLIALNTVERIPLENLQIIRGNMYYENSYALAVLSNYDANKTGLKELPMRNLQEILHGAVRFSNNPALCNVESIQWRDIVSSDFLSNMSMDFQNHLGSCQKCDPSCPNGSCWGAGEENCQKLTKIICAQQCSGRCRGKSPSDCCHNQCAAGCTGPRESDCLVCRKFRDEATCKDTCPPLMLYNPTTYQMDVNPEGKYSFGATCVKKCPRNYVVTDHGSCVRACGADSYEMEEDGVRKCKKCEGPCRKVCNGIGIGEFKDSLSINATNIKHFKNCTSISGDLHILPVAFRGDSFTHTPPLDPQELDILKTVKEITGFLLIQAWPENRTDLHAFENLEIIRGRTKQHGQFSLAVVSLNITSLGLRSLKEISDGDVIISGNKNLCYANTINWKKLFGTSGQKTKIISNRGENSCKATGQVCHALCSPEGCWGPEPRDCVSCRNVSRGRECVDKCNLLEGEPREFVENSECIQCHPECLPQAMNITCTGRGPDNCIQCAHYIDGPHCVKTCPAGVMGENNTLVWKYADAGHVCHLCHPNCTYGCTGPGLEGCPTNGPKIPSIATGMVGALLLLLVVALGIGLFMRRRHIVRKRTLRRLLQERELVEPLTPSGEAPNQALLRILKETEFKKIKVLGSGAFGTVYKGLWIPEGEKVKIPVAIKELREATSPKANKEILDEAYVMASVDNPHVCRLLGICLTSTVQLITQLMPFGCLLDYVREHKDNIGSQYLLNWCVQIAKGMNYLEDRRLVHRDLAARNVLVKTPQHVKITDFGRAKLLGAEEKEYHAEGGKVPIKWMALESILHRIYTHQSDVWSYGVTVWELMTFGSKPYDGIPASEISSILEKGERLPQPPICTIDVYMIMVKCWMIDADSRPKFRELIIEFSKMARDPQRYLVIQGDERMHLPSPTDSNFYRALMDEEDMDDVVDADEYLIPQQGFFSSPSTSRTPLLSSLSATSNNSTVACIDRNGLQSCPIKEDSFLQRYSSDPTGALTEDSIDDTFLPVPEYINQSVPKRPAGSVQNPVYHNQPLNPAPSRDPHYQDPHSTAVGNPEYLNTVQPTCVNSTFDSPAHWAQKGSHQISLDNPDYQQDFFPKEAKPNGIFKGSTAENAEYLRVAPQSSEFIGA
EGFR (human), sequence (P00533 whole entry, looked up): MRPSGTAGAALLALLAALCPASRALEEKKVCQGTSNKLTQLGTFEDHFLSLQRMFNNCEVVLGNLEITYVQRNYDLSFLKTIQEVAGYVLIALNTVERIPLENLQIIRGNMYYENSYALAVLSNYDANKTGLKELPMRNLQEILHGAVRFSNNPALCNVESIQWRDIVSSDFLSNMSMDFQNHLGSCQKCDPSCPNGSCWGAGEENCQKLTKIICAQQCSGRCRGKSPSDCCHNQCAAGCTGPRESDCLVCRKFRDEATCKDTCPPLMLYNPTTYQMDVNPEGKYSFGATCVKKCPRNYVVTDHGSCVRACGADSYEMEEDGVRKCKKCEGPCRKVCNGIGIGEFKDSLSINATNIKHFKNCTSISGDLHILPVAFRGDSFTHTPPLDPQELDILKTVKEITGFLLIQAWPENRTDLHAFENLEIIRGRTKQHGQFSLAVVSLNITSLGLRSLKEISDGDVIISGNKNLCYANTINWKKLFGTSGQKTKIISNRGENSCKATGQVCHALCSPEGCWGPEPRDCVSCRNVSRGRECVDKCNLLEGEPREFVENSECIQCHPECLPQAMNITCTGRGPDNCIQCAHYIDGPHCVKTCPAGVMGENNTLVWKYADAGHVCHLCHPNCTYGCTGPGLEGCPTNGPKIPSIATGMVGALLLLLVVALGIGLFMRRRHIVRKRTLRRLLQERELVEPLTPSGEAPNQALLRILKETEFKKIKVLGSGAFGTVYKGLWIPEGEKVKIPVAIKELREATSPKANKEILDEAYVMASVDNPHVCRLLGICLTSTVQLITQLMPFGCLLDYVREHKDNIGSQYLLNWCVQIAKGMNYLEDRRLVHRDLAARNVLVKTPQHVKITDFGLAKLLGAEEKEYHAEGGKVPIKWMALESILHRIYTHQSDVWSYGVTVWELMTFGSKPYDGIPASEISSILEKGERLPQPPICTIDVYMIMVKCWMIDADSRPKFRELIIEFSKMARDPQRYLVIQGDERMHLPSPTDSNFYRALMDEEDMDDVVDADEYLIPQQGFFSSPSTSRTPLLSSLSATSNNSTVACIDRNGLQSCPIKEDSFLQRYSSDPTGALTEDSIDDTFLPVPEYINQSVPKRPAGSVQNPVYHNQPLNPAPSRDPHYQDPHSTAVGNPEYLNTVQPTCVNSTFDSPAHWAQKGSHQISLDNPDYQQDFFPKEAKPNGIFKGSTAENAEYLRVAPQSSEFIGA
EGFR (Human), P00533 [Assessment of EGFR-Del T790M Dependent Cell Proliferation in BaF3 Cells], sequence (P00533 whole entry, looked up, stated change not applied): as the sequence (P00533 whole entry, looked up) above

SMILES	IC50 (EGFR (human)) [µM]	IC50 [1] [µM]	IC50 [2] [µM]	IC50 [3] [µM]	IC50 [4] [µM]
C=CC(=O)Nc1cc(Nc2ncc(Cl)c(Nc3ccccc3P(C)(C)=O)n2)c(OC)cc1OCc1cccnc1	0.05 to 0.1	< 0.05	< 0.05	0.05 to 0.1	0.101 to 0.25
C=CC(=O)Nc1cc(Nc2ncc(Cl)c(Nc3ccccc3P(C)(C)=O)n2)c(OC)cc1OCCN1CCOCC1	< 0.05	< 0.05	< 0.05	0.05 to 0.1	0.101 to 0.25
C=CC(=O)Nc1cc(Nc2ncc(Cl)c(Nc3ccccc3P(C)(C)=O)n2)c(OC)cc1OC1CCN(C)C1 (stereo not given)	< 0.05	< 0.05	< 0.05	< 0.05	< 0.05
C=CC(=O)Nc1ccc(Cl)c(Nc2ncc(Cl)c(Nc3ccccc3P(C)(C)=O)n2)c1	< 0.05	< 0.05	< 0.05	< 0.05	< 0.05
C=C(CN1CCC(O)C1)C(=O)Nc1ccc(OC)c(Nc2ncc(Cl)c(Nc3ccccc3P(C)(C)=O)n2)c1 (stereo not given)	< 0.05	< 0.05	< 0.05	< 0.05	< 0.05
COc1cc(F)c(NC(=O)C#CCN2CCCC2)cc1Nc1ncc(Cl)c(Nc2ccccc2P(C)(C)=O)n1	< 0.05	< 0.05	< 0.05	< 0.05	< 0.05
C=CC(=O)Nc1cc(Nc2ncc(Cl)c(Nc3ccccc3P(C)(C)=O)n2)c(OC)cc1N1CCC(N2CCCC2)CC1	0.05 to 0.1	< 0.05	< 0.05	< 0.05	0.101 to 0.25
C=CC(=O)Nc1cc(Nc2ncc(Cl)c(Nc3ccccc3P(C)(C)=O)n2)c(OC)cc1C#CC(C)(C)N(C)C	< 0.05	< 0.05	< 0.05	< 0.05	< 0.05
C=CC(=O)Nc1ccc(OC)c(Nc2ncc(OC)c(Nc3ccccc3P(C)(C)=O)n2)c1	0.05 to 0.1	< 0.05	< 0.05	< 0.05	0.05 to 0.1
C=CC(=O)Nc1cc(Nc2ncc(Cl)c(Nc3ccccc3P(C)(C)=O)n2)c(OC)cc1N1CCC(N2CCCCC2)C1 (stereo not given)	< 0.05	< 0.05	< 0.05	< 0.05	< 0.05
COc1cc(N2CCOCC2)c(NC(=O)C#CCN(C)C)cc1Nc1ncc(Cl)c(Nc2ccccc2P(C)(C)=O)n1	< 0.05	< 0.05	< 0.05	< 0.05	< 0.05
C=CC(=O)Nc1cc(Nc2ncc(Cl)c(Nc3ccccc3P(C)(C)=O)n2)c(OC)cc1C#CCN1CCN(C)CC1	< 0.05	< 0.05	< 0.05	< 0.05	0.101 to 0.25
COc1cc(F)c(NC(=O)/C=C/Cl)cc1Nc1ncc(Cl)c(Nc2ccccc2P(C)(C)=O)n1	< 0.05	< 0.05	< 0.05	< 0.05	< 0.05
C=CC(=O)Nc1cc(Nc2ncc(Cl)c(Nc3ccccc3P(C)(C)=O)n2)c(OC)cc1O[C@@H]1CCCN(C)C1	< 0.05	< 0.05	< 0.05	< 0.05	< 0.05
C=CC(=O)Nc1cc(Nc2ncc(Cl)c(Nc3ccccc3P(C)(C)=O)n2)c(CC)cc1C#CCN(C)C	< 0.05	< 0.05	< 0.05	< 0.05	< 0.05
C=CC(=O)Nc1ccc(OC(F)(F)F)c(Nc2ncc(Cl)c(Nc3ccccc3P(C)(C)=O)n2)c1	< 0.05	< 0.05	< 0.05	< 0.05	< 0.05
C=C(CN1CCN(C)CC1)C(=O)Nc1ccc(OC)c(Nc2ncc(Cl)c(Nc3ccccc3P(C)(C)=O)n2)c1	< 0.05	< 0.05	< 0.05	< 0.05	< 0.05

SMILES	IC50 (EGFR (human)) [µM]	IC50 [1] [µM]	IC50 [2] [µM]	IC50 [3] [µM]	IC50 [4] [µM]
COc1cc(C)c(NC(=O)CCl)cc1Nc1ncc(C)c(Nc2ccccc2P(C)(C)=O)n1	< 0.05	< 0.05	< 0.05	< 0.05	< 0.05
COc1ccc(NC(=O)/C=C/Cl)cc1Nc1ncc(Cl)c(Nc2ccccc2P(C)(C)=O)n1	< 0.05	< 0.05	< 0.05	< 0.05	< 0.05
C=CC(=O)Nc1cc(Nc2ncc(Cl)c(Nc3ccccc3P(C)(C)=O)n2)c(OC)cc1OC(COCC)CN(C)C (stereo not given)	< 0.05	< 0.05	< 0.05	< 0.05	< 0.05
C=CC(=O)Nc1cc(Nc2ncc(Cl)c(Nc3ccccc3P(C)(C)=O)n2)c(Cl)cc1C#CCN(C)C	< 0.05	< 0.05	< 0.05	< 0.05	< 0.05
C=CC(=O)Nc1cc(Nc2ncc(Cl)c(Nc3ccccc3P(C)(C)=O)n2)c(OC)cc1N1CCCN(C)CC1	< 0.05	< 0.05	< 0.05	< 0.05	< 0.05
C=C(C)C(=O)Nc1cc(Nc2ncc(Cl)c(Nc3ccccc3P(C)(C)=O)n2)c(OC)cc1N1CC[C@@H](N(C)C)C1	0.101 to 0.25	< 0.05	< 0.05	< 0.05	< 0.05
C=CC(=O)Nc1cc(Nc2ncc(Cl)c(Nc3ccc(OCCN4CCCC4)cc3P(C)(C)=O)n2)c(OC)cc1F	< 0.05	< 0.05	< 0.05	< 0.05	< 0.05
C=CC(=O)Nc1cc(Nc2ncc(Cl)c(Nc3ccccc3P(C)(C)=O)n2)c(OC)cc1C#CCNC	< 0.05	< 0.05	< 0.05	< 0.05	< 0.05
C=CC(=O)Nc1cc(Nc2ncc(Cl)c(Nc3ccccc3P(C)(C)=O)n2)c(OC)cc1C#CCN1CCCCCC1	< 0.05	< 0.05	< 0.05	< 0.05	< 0.05
COc1cc(N2CCOCC2)c(NC(=O)C#CCCN2CCCCC2)cc1Nc1ncc(Cl)c(Nc2ccccc2P(C)(C)=O)n1	< 0.05	< 0.05	< 0.05	< 0.05	< 0.05
COc1ccc(NC(=O)C#CCN(C)C)cc1Nc1ncc(Cl)c(Nc2ccccc2P(C)(C)=O)n1	< 0.05	< 0.05	< 0.05	< 0.05	< 0.05
C=CC(=O)Nc1cc(Nc2ncc(Cl)c(Nc3ccccc3P(C)(C)=O)n2)c(OC)cc1N1CCC(N2CCC2)C1 (stereo not given)	< 0.05	< 0.05	< 0.05	< 0.05	< 0.05
COCC1CCCN1CCC#CC(=O)Nc1cc(Nc2ncc(Cl)c(Nc3ccccc3P(C)(C)=O)n2)c(OC)cc1N1CCOCC1 (stereo not given)	< 0.05	< 0.05	< 0.05	< 0.05	< 0.05
COc1cc(F)c(NC(=O)C#CC(C)(C)N2CCCC2)cc1Nc1ncc(Cl)c(Nc2ccccc2P(C)(C)=O)n1	< 0.05	< 0.05	< 0.05	< 0.05	< 0.05
C=C(CN1CCC(N2CCOCC2)CC1)C(=O)Nc1ccc(OC)c(Nc2ncc(Cl)c(Nc3ccccc3P(C)(C)=O)n2)c1	< 0.05	< 0.05	< 0.05	< 0.05	< 0.05
C=CC(=O)Nc1cc(Nc2ncc(Cl)c(Nc3ccccc3P(C)(C)=O)n2)c(OC)cc1N1CCC(N2CCCN(C)CC2)CC1	< 0.05	< 0.05	< 0.05	0.05 to 0.1	0.101 to 0.25
C=CC(=O)Nc1ccc(Nc2ncc(Cl)c(Nc3cccc(OCCN4CCCCC4)c3P(C)(C)=O)n2)c(OC)c1	0.101 to 0.25	< 0.05	< 0.05	< 0.05	0.101 to 0.25

— the Kinase Knowledgebase extract (Sharma et al. 2016)
